Measured values published in patent US20250276984A1, “SOLID STATE FORMS OF HER2 INHIBITORS” (Iambic Therapeutics, Inc., priority 2024, published 2025).
≈ marks a conversion by molar mass, not a printed value.

Assays:
[1] = Solubility estimated by solvent aliquot addition at ambient temperature; format: physicochemical; details: thermodynamic from solid
Description: Solubilities were estimated by solvent aliquot addition at ambient temperature and reported to the nearest whole number; if complete dissolution was achieved by one aliquot addition, the value is reported as “>”; if solids were present, the value is reported as “<”. The actual solubility may be larger than the value calculated because of the use of solvent aliquots that were too large or due to a slow rate of dissolution.

[2] = Dynamic vapor sorption (DVS); format: physicochemical; set-up: Hysteresis: unit not given here
Experimental: By DVS, a weight gain of 2.8 weight %, consistent with a gain of 0.9 mol water, was observed from 6% to 95% RH. A complete desorption was observed from 95% to 6% RH. No significant hysteresis was observed. The resulting crystalline material was analyzed by XRPD and shown to the Form A.

[3] = Cycle 1, target RH 95.0%, sample RH 95.4%

- solubility ([1]; aqueous with cosolvent or surfactant or cyclodextrin, 10:90 dioxane/water v/v): < 1 mg/mL
- solubility ([1]; aqueous with cosolvent or surfactant or cyclodextrin, 20:80 MeOH/water v/v): < 1 mg/mL
- solubility ([1]; aqueous with cosolvent or surfactant or cyclodextrin, 35:65 THF/water v/v): 17 mg/mL (≈ 30.8 mM)
- solubility ([1]; aqueous with cosolvent or surfactant or cyclodextrin, 50:50 ACN/water v/v): > 72 mg/mL
- solubility ([1]; aqueous with cosolvent or surfactant or cyclodextrin, 50:50 DMAc/water v/v): 10 mg/mL (≈ 18.1 mM)
- solubility ([1]; aqueous with cosolvent or surfactant or cyclodextrin, 50:50 MeOH/water v/v): 4 mg/mL (≈ 7.25 mM)
- solubility ([1]; aqueous with cosolvent or surfactant or cyclodextrin, 50:50 THF/water v/v): > 31 mg/mL
- solubility ([1]; aqueous with cosolvent or surfactant or cyclodextrin, 50:50 acetone/water v/v): 24 mg/mL (≈ 43.5 mM)
- solubility ([1]; aqueous with cosolvent or surfactant or cyclodextrin, 50:50 dioxane/water v/v): 29 mg/mL (≈ 52.6 mM)
- solubility ([1]; organic solvent or mixture, 2-MeTHF): 5 mg/mL (≈ 9.06 mM)
- solubility ([1]; organic solvent or mixture, 10:90 chloroform/IPA v/v): 27 mg/mL (≈ 48.9 mM)
- solubility ([1]; organic solvent or mixture, 20:80 MeOH/EtOAc v/v): > 51 mg/mL
- solubility ([1]; organic solvent or mixture, 30:70 DCM/toluene v/v): 9 mg/mL (≈ 16.3 mM)
- solubility ([1]; organic solvent or mixture, 30:70 DMAc/MTBE v/v): 29 mg/mL (≈ 52.6 mM)
- solubility ([1]; organic solvent or mixture, 30:70 EtOH/toluene v/v): > 88 mg/mL
- solubility ([1]; organic solvent or mixture, 50:50 DCM/toluene v/v): 50 mg/mL (≈ 90.6 mM)
- solubility ([1]; organic solvent or mixture, 50:50 DMAc/toluene v/v): > 28 mg/mL
- solubility ([1]; organic solvent or mixture, 50:50 EtOAc/IPA v/v): 17 mg/mL (≈ 30.8 mM)
- solubility ([1]; organic solvent or mixture, 50:50 EtOAc/MIBK v/v): 4 mg/mL (≈ 7.25 mM)
- solubility ([1]; organic solvent or mixture, 70:30 THF/heptane v/v): 10 mg/mL (≈ 18.1 mM)
- solubility ([1]; organic solvent or mixture, ACN): 7 mg/mL (≈ 12.7 mM)
- solubility ([1]; organic solvent or mixture, Acetone): 15 mg/mL (≈ 27.2 mM)
- solubility ([1]; organic solvent or mixture, DCM): > 88 mg/mL
- solubility ([1]; organic solvent or mixture, DMAc): > 110 mg/mL
- solubility ([1]; organic solvent or mixture, EtOAc): 3 mg/mL (≈ 5.44 mM)
- solubility ([1]; organic solvent or mixture, IPA): 3 mg/mL (≈ 5.44 mM)
- solubility ([1]; organic solvent or mixture, MIBK): 3 mg/mL (≈ 5.44 mM)
- solubility ([1]; organic solvent or mixture, MTBE): < 1 mg/mL
- solubility ([1]; organic solvent or mixture, MeOH): > 116 mg/mL
- solubility ([1]; organic solvent or mixture, THF): 38 mg/mL (≈ 68.9 mM)
- solubility ([1]; organic solvent or mixture, chloroform): > 100 mg/mL
- solubility ([1]; organic solvent or mixture, cyclohexane): < 1 mg/mL
- solubility ([1]; organic solvent or mixture, dioxane): 32 mg/mL (≈ 58 mM)
- solubility ([1]; organic solvent or mixture, heptane): < 2 mg/mL
- solubility ([1]; organic solvent or mixture, toluene): < 1 mg/mL
- solubility ([1]; water): < 1 mg/mL
- Sorp Mass Change ([2]; Cycle 1, target RH 5.0%, sample RH 5.5%): 0.004%
- Desorp Mass Change ([2]; Cycle 1, target RH 5.0%, sample RH 5.8%): −0.017%
- Hysteresis ([2]; Cycle 1, target RH 15.0%): −0.006
- Desorp Mass Change ([2]; Cycle 1, target RH 15.0%, sample RH 15.3%): 0.271%
- Sorp Mass Change ([2]; Cycle 1, target RH 15.0%, sample RH 15.5%): 0.277%
- Hysteresis ([2]; Cycle 1, target RH 25.0%): 0.039
- Sorp Mass Change ([2]; Cycle 1, target RH 25.0%, sample RH 24.6%): 0.609%
- Desorp Mass Change ([2]; Cycle 1, target RH 25.0%, sample RH 25.0%): 0.648%
- Hysteresis ([2]; Cycle 1, target RH 35.0%): 0.075
- Sorp Mass Change ([2]; Cycle 1, target RH 35.0%, sample RH 34.3%): 1.034%
- Desorp Mass Change ([2]; Cycle 1, target RH 35.0%, sample RH 34.8%): 1.109%
- Hysteresis ([2]; Cycle 1, target RH 45.0%): 0.104
- Sorp Mass Change ([2]; Cycle 1, target RH 45.0%, sample RH 44.4%): 1.470%
- Desorp Mass Change ([2]; Cycle 1, target RH 45.0%, sample RH 44.9%): 1.573%
- Hysteresis ([2]; Cycle 1, target RH 55.0%): 0.123
- Sorp Mass Change ([2]; Cycle 1, target RH 55.0%, sample RH 54.3%): 1.811%
- Desorp Mass Change ([2]; Cycle 1, target RH 55.0%, sample RH 54.8%): 1.934%
- Hysteresis ([2]; Cycle 1, target RH 65.0%): 0.112
- Sorp Mass Change ([2]; Cycle 1, target RH 65.0%, sample RH 64.4%): 2.087%
- Desorp Mass Change ([2]; Cycle 1, target RH 65.0%, sample RH 64.9%): 2.199%
- Hysteresis ([2]; Cycle 1, target RH 75.0%): 0.116
- Sorp Mass Change ([2]; Cycle 1, target RH 75.0%, sample RH 74.5%): 2.315%
- Desorp Mass Change ([2]; Cycle 1, target RH 75.0%, sample RH 75.1%): 2.431%
- Hysteresis ([2]; Cycle 1, target RH 85.0%): 0.096
- Sorp Mass Change ([2]; Cycle 1, target RH 85.0%, sample RH 85.1%): 2.559%
- Desorp Mass Change ([2]; Cycle 1, target RH 85.0%, sample RH 86.2%): 2.656%
- Desorp Mass Change [2, 3]: 2.849%
- Sorp Mass Change [2, 3]: 2.849%
- water gain consistent with DVS weight gain ([2]; from 6% to 95% RH): 0.9 mol water
- weight gain by DVS ([2]; from 6% to 95% RH): 2.8 weight %
Structure (SMILES): Cc1cc(Nc2ncnn3ccc(C4CCN(C(=O)/C=C/CN(C)C)CC4)c23)ccc1Oc1ccn2ncnc2c1 [Compound 1 Form A, (E)-1-(4-(4-((4-([1,2,4]triazolo[1,5-a]pyridin-7-yloxy)-3-methylphenyl)amino)pyrrolo[2,1-f][1,2,4]triazin-5-yl)piperidin-1-yl)-4-(dimethylamino)but-2-en-1-one]
